Assay results as given in ChEMBL document CHEMBL1150881, “Glacins A and B: two novel bioactive mono-tetrahydrofuran acetogenins from Annona glabra” (J Nat Prod, 1998).
≈ marks a conversion by molar mass, not a printed value.

Assays:
[1] = Toxicity in Artemia salina; assay type: organism-based; settings: in vivo
[2] = tested on: A549; experiment: Cytotoxicity against human A549 cells after 7 days by MTT assay; assay type: functional; settings: A549, 168 h, read-out: ED50 (the source's name)
[3] = tested on: MCF7; experiment: Cytotoxicity against human MCF7 cells after 7 days by MTT assay; assay type: functional; settings: MCF7, 168 h, read-out: ED50 (the source's name)
[4] = tested on: HT-29; experiment: Cytotoxicity against human HT-29 cells after 7 days by MTT assay; assay type: functional; settings: HT-29, 168 h, read-out: ED50 (the source's name)
[5] = tested on: A498; experiment: Cytotoxicity against human A498 cells after 7 days by MTT assay; assay type: functional; settings: A498, 168 h, read-out: ED50 (the source's name)
[6] = tested on: PC-3; experiment: Cytotoxicity against human PC3 cells after 7 days by MTT assay; assay type: functional; settings: PC-3, 168 h, read-out: ED50 (the source's name)
[7] = tested on: MIA PaCa-2; experiment: Cytotoxicity against human MIAPaCa2 cells after 7 days by MTT assay; assay type: functional; settings: MIA PaCa-2, 168 h, read-out: ED50 (the source's name)

| SMILES | LC50 [1] | EC50 [2] | EC50 [3] | EC50 [4] | EC50 [5] | EC50 [6] | EC50 [7] |
| --- | --- | --- | --- | --- | --- | --- | --- |
| CCCCCCCCCC[C@@H](O)[C@H]1CC[C@H]([C@H](O)CCCC[C@H](O)CCCCCCC[C@@H](O)CC2=C[C@H](C)OC2=O)O1 [GLACIN A] | 0.11 µg/mL (≈ 0.184 µM) | 1.53 µg/mL (≈ 2.56 µM) | 0.00442 µg/mL (≈ 0.00741 µM) | 2.3 µg/mL (≈ 3.85 µM) | 1.25 µg/mL (≈ 2.09 µM) | 0.00981 µg/mL (≈ 0.0164 µM) | 0.00857 µg/mL (≈ 0.0144 µM) |
| COc1cccc2c1C(=O)c1c(O)c3c(c(O)c1C2=O)C[C@@](O)(C(=O)CO)C[C@@H]3O[C@H]1C[C@H](N)[C@H](O)[C@H](C)O1 [DOXORUBICIN] |  | 0.0191 µg/mL (≈ 0.0351 µM) | 0.179 µg/mL (≈ 0.329 µM) | 0.0278 µg/mL (≈ 0.0511 µM) | 0.0062 µg/mL (≈ 0.0114 µM) | 0.046 µg/mL (≈ 0.0846 µM) | 0.0153 µg/mL (≈ 0.0281 µM) |
| CCCCCCCCCC[C@H](O)[C@@H](O)CCCC[C@H]1CC[C@H]([C@H]2CC[C@H]([C@H](O)CCCCC[C@@H](O)CC3=C[C@H](C)OC3=O)O2)O1 [GLACIN B] | 0.27 µg/mL (≈ 0.423 µM) | 1.29 µg/mL (≈ 2.02 µM) | 0.052 µg/mL (≈ 0.0814 µM) | 0.0868 µg/mL (≈ 0.136 µM) | 2.61 µg/mL (≈ 4.08 µM) | 0.0559 µg/mL (≈ 0.0875 µM) | 0.0274 µg/mL (≈ 0.0429 µM) |
